Laboratory results as given in patent publication US20160338955A1, “ANTIGEN-SPECIFIC IMMUNOTHERAPY USING TOLERIZING LIPOSOMES” (PLS-Design GmbH, priority 2015, published 2016).
Like-named read-outs stand apart in the source and are kept apart here.

How the values were obtained:
murine CD22 = biological target: T1, murine CD22 (Mus musculus, UniProt P35329); details: cited from earlier work
T1 sequence (P35329 22-868): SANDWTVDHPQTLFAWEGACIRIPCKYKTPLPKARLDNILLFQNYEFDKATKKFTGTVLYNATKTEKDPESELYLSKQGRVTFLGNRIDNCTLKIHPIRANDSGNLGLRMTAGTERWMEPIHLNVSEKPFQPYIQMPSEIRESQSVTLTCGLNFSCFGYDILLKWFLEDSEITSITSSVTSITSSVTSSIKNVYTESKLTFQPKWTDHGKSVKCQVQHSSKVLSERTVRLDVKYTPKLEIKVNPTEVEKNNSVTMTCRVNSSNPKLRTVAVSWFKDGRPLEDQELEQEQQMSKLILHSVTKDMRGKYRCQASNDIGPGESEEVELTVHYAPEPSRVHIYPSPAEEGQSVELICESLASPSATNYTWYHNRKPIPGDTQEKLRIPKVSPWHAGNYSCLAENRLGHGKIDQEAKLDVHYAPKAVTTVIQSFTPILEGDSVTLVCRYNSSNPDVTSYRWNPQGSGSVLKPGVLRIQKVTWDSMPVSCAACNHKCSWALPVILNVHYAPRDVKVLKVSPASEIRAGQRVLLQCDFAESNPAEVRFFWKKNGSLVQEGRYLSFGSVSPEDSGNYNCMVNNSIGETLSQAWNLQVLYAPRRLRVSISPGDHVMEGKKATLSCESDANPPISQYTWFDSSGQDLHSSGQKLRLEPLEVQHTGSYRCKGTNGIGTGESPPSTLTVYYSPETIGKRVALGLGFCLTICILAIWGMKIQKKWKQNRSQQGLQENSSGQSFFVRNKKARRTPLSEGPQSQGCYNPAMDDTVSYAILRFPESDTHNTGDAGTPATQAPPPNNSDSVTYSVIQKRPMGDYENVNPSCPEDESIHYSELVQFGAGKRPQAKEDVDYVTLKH

[1] = test system: human polymorphonuclear leukocyte (PMN) trans-endothelial migration; details: equipotent to resolvin D1; read-out: EC50 of reduction of PMN trans-endothelial migration; cited from earlier work
leukocyte infiltration = details: 100 ng dose; cited from earlier work
[2] = In vitro release of ATP from PLGA-PEG-PLGA hydrogels; assay type: physicochemical
Protocol: An aliquot of 20 μl of a 10 mM solution of ATP is combined with 160 μl of 25% gel solution of Example 4.1 and 20 μl of 10×PBS (final concentration of ATP is 1 mM). The mixture is incubated for 2 minutes at 37° C. to induce gelling and overlayed with 1 ml of 1×PBS. At frequent timepoints the supernatant is removed by pipetting and stored at 4° C. The removed supernatant is replaced by fresh 1 ml of 1×PBS. After 48 hours the samples are measured spectrometrically at 260 nm and the amount of released ATP is calculated as percentage of a reference sample containing a concentration of ATP equaling 100% release.

P2X7 = biological target: T2, P2X7 (Homo sapiens, UniProt Q99572); details: read-out: EC50 for activation of P2X7; cited from earlier work
T2 sequence (Q99572 1-595): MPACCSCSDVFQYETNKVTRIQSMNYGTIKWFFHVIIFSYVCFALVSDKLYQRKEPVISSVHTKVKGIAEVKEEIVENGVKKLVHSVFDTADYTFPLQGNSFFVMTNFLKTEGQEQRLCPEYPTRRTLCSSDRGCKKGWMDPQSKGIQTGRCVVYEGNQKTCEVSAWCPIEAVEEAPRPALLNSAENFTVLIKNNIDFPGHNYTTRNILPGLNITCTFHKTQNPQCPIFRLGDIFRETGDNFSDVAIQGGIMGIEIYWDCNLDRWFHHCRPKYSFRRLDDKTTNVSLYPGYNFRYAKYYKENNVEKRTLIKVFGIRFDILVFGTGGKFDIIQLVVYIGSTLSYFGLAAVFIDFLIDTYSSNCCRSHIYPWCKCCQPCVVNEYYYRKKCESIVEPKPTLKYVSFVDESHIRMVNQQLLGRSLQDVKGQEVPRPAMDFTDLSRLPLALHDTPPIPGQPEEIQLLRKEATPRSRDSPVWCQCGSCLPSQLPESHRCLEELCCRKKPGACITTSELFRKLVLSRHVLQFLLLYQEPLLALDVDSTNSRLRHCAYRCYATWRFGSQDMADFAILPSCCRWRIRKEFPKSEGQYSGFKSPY

P2Y2 = P2Y2 (Homo sapiens, UniProt P41231); details: read-out: EC50 for activation of P2Y2; cited from earlier work
P2Y2, sequence (P41231 whole entry, species assumed): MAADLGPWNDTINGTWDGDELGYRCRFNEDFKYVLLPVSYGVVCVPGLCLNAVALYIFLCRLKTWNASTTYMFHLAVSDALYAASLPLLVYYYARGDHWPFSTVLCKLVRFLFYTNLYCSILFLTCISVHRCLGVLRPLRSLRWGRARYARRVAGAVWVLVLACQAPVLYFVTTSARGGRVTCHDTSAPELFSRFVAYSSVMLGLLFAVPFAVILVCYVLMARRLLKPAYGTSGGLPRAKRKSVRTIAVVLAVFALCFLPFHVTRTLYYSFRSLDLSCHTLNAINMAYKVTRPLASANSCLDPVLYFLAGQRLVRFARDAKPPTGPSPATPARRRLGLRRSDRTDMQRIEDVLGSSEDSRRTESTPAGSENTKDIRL

phagocytes = details: cited from earlier work; for maximal migration of phagocytes (increase): at about 100 nM; for concentration effecting maximal migration of phagocytes: transwell migration assay
[3] = Release of DexP from PLGA-PEG-PLGA hydrogels; assay type: physicochemical
Protocol: The biodegradable PLGA-PEG-PLGA triblock polymer used in this example has a PLG/PEG weight ratio of 2.3 (70/30), and a lactide/glycolide molar ratio of approx. 15/1. Synthesis of the triblock copolymer is performed as described in Example 2.1. A 20 mM stock solution of DexP in PBS (10.3 mg/ml; MW 516.4; Sigma-Aldrich) is diluted 1:40 in PBS (final concentration: 0.5 mM), and 20 μl of the diluted stock solution is combined with 160 μl of 25% gel solution and 20 μl of 10×PBS (final concentration of DexP: 0.05 mM).
The mixture of 5.2.1 is incubated for 2 minutes at 37° C. to induce gelling and overlayed with 200 μl of 1×PBS. At frequent time points the supernatant is removed by pipetting and stored at 4° C. The removed supernatant is replaced by fresh 200 μl of 1×PBS. Controls of the same concentration of DexP in 1×PBS without gel are incubated and sampled in parallel.
Released DexP is determined with a spectrophotometric method (Singh and Verma, 2008). The method involves oxidation of the corticosteroid by iron (III) and subsequent complexation of iron (II) with potassium hexacynoferate (III), forming a bluish green coloured complex with maximum absorbance at 780 nm (Beer's law range: 10-50 μg/ml; molar absorptivity (M^−1cm^−1): for DexP 0.55×10^4).

[4] = cited from earlier work
rheumatoid arthritis = details: 2 μg/day for 3 months, cited from earlier work
[5] = cited from earlier work; remark: listed apart in the source
[6] = rodents; cited from earlier work
calcium metabolism = details: compared to 1,25-(OH)2D3; cited from earlier work
[7] = cited from earlier work; remark: listed apart in the source
[8] = cited from earlier work; remark: listed apart in the source
[9] = rats; cited from earlier work
[10] = in vivo; cited from earlier work
[11] = cited from earlier work; remark: listed apart in the source
[12] = test system: TNFR1-mediated activation of NF-κB; details: high concentrations; cited from earlier work
type 1 diabetes = details: cited from earlier work

Q: For “9-biphenylacetyl-N-glycolylneuraminic acid-α2-6-galactose-β1-4-N-acetylglucosamine-β-ethylamine [6′-^BPANeuGc]”, which “affinity for murine CD22, fold higher than natural ligand NeuGcα2-6Galβ1-4GlcNAc-β-ethylamine” value (murine CD22) is on record?
A: 200 fold

Q: Which EC50 [1] does the source give for `CC/C=C\C[C@@H](O)/C=C/C=C\C=C\C=C\[C@@H](O)[C@@H](O)C/C=C\CCC(=O)O` [17(R)-Resolvin D1] here?
A: ~30 nM

Q: What about the “maximal inhibition of leukocyte infiltration” value (leukocyte infiltration) of the same molecule?
A: ~35%

Q: For `Nc1ncnc2c1ncn2[C@@H]1O[C@H](COP(=O)(O)OP(=O)(O)OP(=O)(O)O)[C@@H](O)[C@H]1O` [ATP], which “hydrogel-embedded ATP released” value ([2]; after 48 hours) is on record?
A: approx. 75%

Q: And the “further hydrogel-embedded ATP released” value ([2]; another, within the next 20 hours)?
A: 10%

Q: And the “hydrogel-embedded ATP released” value ([2]; within the first 5 hours (initial burst))?
A: approx. 50%

Q: And the EC50 (P2X7)?
A: > 100000 nM

Q: And the EC50 (P2Y2)?
A: < 1000 nM

Q: And the “maximal migration of phagocytes (increase)” value (phagocytes)?
A: threefold increase

Q: And the “concentration effecting maximal migration of phagocytes” value (phagocytes)?
A: about 100 nM

Q: What does the source list for `C[C@@H]1C[C@H]2[C@@H]3CCC4=CC(=O)C=C[C@]4(C)[C@@]3(F)[C@@H](O)C[C@]2(C)[C@@]1(O)C(=O)COP(=O)(O)O` [DexP, dexamethasone sodium phosphate]?
A: hydrogel-embedded DexP released ([3]; after 2 days): 80-90%; hydrogel-embedded DexP released ([3]; within the first 6 hours): 30-50%; solubility in PBS ([4]; PBS): at least 25 mg/ml; solubility in 10 mM HEPES and 135 mM NaCl, pH 6.7 ([4]; pH 6.7): at least 50 mg/ml; solubility in water ([4]; water, product information): 50 mg/mL

Q: For `O=c1ccn([C@@H]2O[C@H](COP(=O)(O)OP(=O)(O)OP(=O)(O)O)[C@@H](O)[C@H]2O)c(=O)[nH]1` [UTP], which “maximal migration of phagocytes (increase)” value (phagocytes) is on record?
A: threefold increase

Q: What about the “concentration effecting maximal migration of phagocytes” value (phagocytes) of the same molecule?
A: about 100 nM

Q: Which “patients with improvement of disease activity” value (rheumatoid arthritis; on methotrexate) does the source give for `C=C1/C(=C\C=C2/CCC[C@]3(C)[C@@H]([C@H](C)CCCC(C)C)CC[C@@H]23)C[C@@H](O)C[C@@H]1O` [alfacalcidiol] here?
A: 89%

Q: What about the “patients going into remission” value (rheumatoid arthritis) of the same molecule?
A: 45%

Q: For `C=C1CC[C@H](O)C/C1=C/C=C1\CCC[C@]2(C)[C@@H]([C@H](C)CCCC(C)(C)O)CC[C@@H]12` [calcidiol, 25-hydroxyvitamin D3], which “plasma calcidiol concentration producing vitamin D toxicity” value ([5]; Jones (2008)) is on record?
A: above 0.75 μM

Q: And the “calcidiol level at which toxicity occurs” value ([5]; Shephard and DeLuca (1980))?
A: ≥ 500 ng/mL

Q: What about the “plasma calcidiol concentration tolerated with normocalcemia” value [6] of the same molecule?
A: 250 to 1000 nM

Q: For `C=C1/C(=C\C=C2/CCC[C@]3(C)[C@@H]([C@H](C)/C=C/[C@@H](O)C4CC4)CC[C@@H]23)C[C@@H](O)C[C@@H]1O` [calcipotriol], which “effect on calcium metabolism, times less than 1,25-(OH)2D3 (calcitriol)” value (calcium metabolism) is on record?
A: 100-200 times

Q: What about the “rate of clearance, times higher than for 1,25-(OH)2D3” value ([7]; compared to 1,25-(OH)2D3 / calcitriol) of the same molecule?
A: approximately 140 times

Q: And the “detectable in serum by HPLC up to” value ([7]; i.v. injection of 10 μg/kg in rats)?
A: up to 5 min

Q: What about the “detectable in serum by HPLC up to” value ([7]; i.v. injection of 50 μg/kg in rats) of the same molecule?
A: up to 10 min

Q: What about the “applied dose absorbed systemically” value ([8]; applied to normal skin) of the same molecule?
A: 5%

Q: And the “applied dose absorbed systemically” value ([8]; ointment applied topically to psoriasis plaques)?
A: approximately 6%

Q: And the “single s.c. dose up to which no death occurred” value [9]?
A: ≤ 540 μg/kg body weight

Q: Which “glucocorticoid potency (in words)” value [10] does the source give for `C[C@]12CCC(=O)C=C1CC[C@@H]1[C@@H]2C(=O)C[C@@]2(C)[C@H]1CC[C@]2(O)C(=O)CO` [cortisone] here?
A: rather low potency

Q: What does the source list for `C[C@@H]1C[C@H]2[C@@H]3CCC4=CC(=O)C=C[C@]4(C)[C@@]3(F)[C@@H](O)C[C@]2(C)[C@@]1(O)C(=O)CO` [dexamethasone]?
A: plasma concentration of Dex ([11]; after 6 weeks (day 42)): 1 nM; plasma concentration of Dex ([11]; around day 7 after i.v. 200 mg/day on three alternating days): 100 to 1000 nM

Q: Which “glucocorticoid potency (in words)” value [10] does the source give for `C[C@]12CCC(=O)C=C1CC[C@@H]1[C@@H]2[C@@H](O)C[C@@]2(C)[C@H]1CC[C@]2(O)C(=O)CO` [hydrocortisone] here?
A: rather low potency

Q: With `C[C@]12C=CC(=O)C=C1CC[C@@H]1[C@@H]2[C@@H](O)C[C@@]2(C)[C@H]1CC[C@]2(O)C(=O)CO` [prednisolone] as the molecule, how does the “glucocorticoid potency (in words)” value [10] read?
A: intermediate potency

Q: Which “concentration inhibiting TNFR1-mediated activation of NF-κB” value [12] does the source give for `O=C([O-])c1ccccc1O.[Na+]` [sodium salicylate] here?
A: 10 to 20 mM

Q: With `C[C@]12C=CC(=O)C=C1CC[C@H]1[C@@H]3C[C@@H](O)[C@](O)(C(=O)CO)[C@@]3(C)C[C@H](O)[C@@]12F` [triamcinolone] as the molecule, how does the “glucocorticoid potency (in words)” value [10] read?
A: intermediate potency

Q: Which “relative risk of type 1 diabetes” value (type 1 diabetes; doses of exactly 50 μg/day) does the source give for vitamin D here?
A: 0.22

Q: And the “relative risk of type 1 diabetes” value (type 1 diabetes; doses of over 50 μg/day (2000 IU/d) during infancy, subsequent 30 years)?
A: 0.14

Q: And the “odds ratio of risk for T1D by age 15” value (type 1 diabetes; supplemented vs unsupplemented children)?
A: 0.67
